A short description of data set [1]: Half life in human serum measured upto 30 min by HPLC analysis. Format: ADME, cell-free.
The nature of data set [2]: Half life in human liver microsomes measured upto 30 min in presence of NADPH by HPLC analysis. The format is ADME, Microsome. (Liver microsomes are vesicles of endoplasmic reticulum, rich in cytochrome P450 enzymes.)
Data set [3] can be described thus: Solubility of compound in water at pH 7.2 using crystalline sample. Format: physicochemical.
Data set [4] is described as follows: Solubility of compound in water in presence of 0.5 M PBS at pH 7.0 using crystalline sample. Format: physicochemical. Particulars: water with 0.5 M PBS.
A short description of data set [5]: Solubility of the compound in FaSSIF using crystalline sample. Format: physicochemical.
Data set [6] in a line: Solubility of the compound in FeSSIF using crystalline sample. Format: physicochemical.
The nature of data set [7]: Lipophilicity, logD of compound at pH 7.4. Format: physicochemical. Particulars: buffer.
A short description of data set [8]: Acid dissociation constant, pKa of the compound. Format: physicochemical.
Data set [9] is described as follows: Half life in rat liver microsomes measured upto 30 min in presence of NADPH by HPLC analysis. The format is ADME, Microsome.
Data set [10] is described as follows: Half life in dog liver microsomes measured upto 30 min in presence of NADPH by HPLC analysis. The format is ADME, Canis lupus familiaris, Microsome.
The nature of data set [11]: Half life in monkey liver microsomes measured upto 30 min in presence of NADPH by HPLC analysis. Format: ADME, Macaca mulatta, Microsome. The following applies: rhesus monkey.
A short description of data set [12]: Oral bioavailability in rat at 30 mg/kg by LC/MS/MS analysis. The format is ADME, organism-based. Particulars: in vivo.
A short description of data set [13]: Oral bioavailability in dog at 10 mg/kg by LC/MS/MS analysis. The format is ADME, organism-based, Canis lupus familiaris. The following applies: in vivo.
Data set [14] can be described thus: Oral bioavailability in monkey at 20 mg/kg by LC/MS/MS analysis. The format is ADME, organism-based, Macaca mulatta. The following applies: rhesus monkey, in vivo.
A short description of data set [15]: Oral bioavailability in rat. The following applies: in vivo. The format is ADME, organism-based.
A short description of data set [16]: Oral bioavailability in dog. The format is ADME, organism-based, Canis lupus familiaris. The following applies: in vivo.
A short description of data set [17]: Oral bioavailability in monkey. The following applies: rhesus monkey, in vivo. The format is ADME, organism-based, Macaca mulatta.

SMILES strings stand for the structures.

In general, half-life refers to the time in which the quantity being followed falls by half. Usually solubility stands for the dissolved amount per volume that the medium holds. Usually solubility (thermodynamic) stands for the concentration in solution at equilibrium with solid. What is called logD is lipophilicity at a set pH, counting ionised and neutral species. The pKa is the negative logarithm of the acid dissociation constant.

On to `O=C(OCOC(=O)c1c(F)ccc2c1OB(O)[C@@H]1C[C@H]21)OC1CCCCC1`, for which the half-life was over 60 min in [1] and 27 min in data set [2].
For `CC(C)C(=O)OCOC(=O)c1c(F)ccc2c1O[B-](O)(O)[C@@H]1C[C@H]21.[Na+]`, the solubility in data set [3] was over 100 mg/mL. The figures for the solubility (thermodynamic) in data set [4], in data set [5] and in [6] were 10.6 mg/mL, over 100 mg/mL and over 100 mg/mL, respectively. This compound displayed a logD in data set [7] of 0.33. The pKa in data set [8] was found to be 4.8.
Turning to `CN(C)C(=O)COC(=O)OCOC(=O)c1c(F)ccc2c1OB(O)[C@@H]1C[C@H]21`, the half-life in [1] is over 60 min; in data set [2] it was over 30 min.
`O=C(OCOC(=O)c1c(F)ccc2c1OB(O)[C@@H]1C[C@H]21)OC1CCOCC1`: the half-life in data set [1] and in data set [2] was over 30 min in each case.
For the compound `COCCOC(=O)OCOC(=O)c1c(F)ccc2c1OB(O)[C@@H]1C[C@H]21`, the half-life is over 60 min in [1] and over 30 min in data set [2].
With `O=C(OCOC(=O)C1CCOCC1)c1c(F)ccc2c1OB(O)[C@@H]1C[C@H]21`, the half-life in data set [1] was determined as 26 min; in [2], 23 min.
As for `O=C(OCOC(=O)C1CC1)c1c(F)ccc2c1OB(O)[C@@H]1C[C@H]21`, the figures for the half-life in data set [1] and in [2] were over 60 min and 14.3 min, respectively.
With `CC(=O)OCOC(=O)c1c(F)ccc2c1OB(O)[C@@H]1C[C@H]21`, the half-life in data set [1] was over 30 min; in [2], 8 min; in data set [9], 3 min; in data set [10], 15 min; in data set [11], 3 min. The bioavailability in [12] stood at 131%; in data set [13] it was 50.1%; in [14], 103%.
In the case of `CC(=O)OCCOC(=O)OCOC(=O)c1c(F)ccc2c1OB(O)[C@@H]1C[C@H]21`, the half-life in data set [1] is over 30 min; in data set [2] it was 24 min.
For the compound `O=C(OCOC(=O)C1COC1)c1c(F)ccc2c1OB(O)[C@@H]1C[C@H]21`, the half-life in [1] amounted to 3.9 min.
For the compound `CC(=O)N1CCC[C@@H]1C(=O)OCOC(=O)c1c(F)ccc2c1OB(O)[C@@H]1C[C@H]21`, the half-life in [1] and in data set [2] was over 30 min in each case.
Regarding `Cc1oc(=O)oc1COC(=O)c1c(F)ccc2c1OB(O)[C@@H]1C[C@H]21`, the half-life in data set [1] was 3.7 min; in data set [2], over 30 min.
As to `CCOC(=O)OCOC(=O)c1c(F)ccc2c1OB(O)[C@@H]1C[C@H]21`, the half-life was over 60 min in data set [1] and over 30 min in [2].
Take `CC(C)C(=O)OCOC(=O)c1c(F)ccc2c1OB(O)[C@@H]1C[C@H]21`: the half-life in data set [1] is over 60 min; in data set [2], 9 min; in data set [9], 5 min; in data set [10] it was 23 min; in data set [11], 2 min. Besides, the bioavailability in data set [12] was 125%; in data set [13] it was 65%; in data set [14], 106%.
Take `O=C(OCOC(=O)c1c(F)ccc2c1OB(O)[C@@H]1C[C@H]21)OC1COC1`: the half-life in data set [1] is 11 min; in data set [2] it was over 30 min.
As to `CCCC(=O)OCOC(=O)c1c(F)ccc2c1OB(O)[C@@H]1C[C@H]21`, the half-life in data set [1] is over 60 min; in [2] it was 28 min; in [9], 3 min; in data set [10], 11 min; in data set [11], 2 min. Besides, the bioavailability in data set [12] amounted to 145%; in data set [13], 55.6%; in data set [14], 104%.
Take `O=C(O)c1c(F)ccc2c1OB(O)[C@@H]1C[C@H]21` [XERUBORBACTAM]: the bioavailability worked out at 50% in data set [15], 50% in data set [16] and 20% in data set [17].
Turning to `CN(C)C(=O)COC(=O)c1c(F)ccc2c1OB(O)[C@@H]1C[C@H]21`, the half-life in data set [1] is over 60 min; in data set [2] it was over 30 min.
For `CC(C)OC(=O)OCOC(=O)c1c(F)ccc2c1OB(O)[C@@H]1C[C@H]21`, in data set [2], the half-life is over 30 min.

The values are drawn from ChEMBL document CHEMBL5150011, “Selection of QPX7831, an Orally Bioavailable Prodrug of Boronic Acid β-Lactamase Inhibitor QPX7728” (J Med Chem, 2021).
